IC50 data for 15 molecules are collected here from US6573293B2, “Pyrrole substituted 2-indolinone protein kinase inhibitors” (Sugen, Inc., priority 2000, dated 2003).

The target of one experiment is T1, HER-2 kinase (Homo sapiens, UniProt P04626).
T1 construct: Use EGFr/HER-2 chimera/3T3-C7 cell line for this assay; It is expressed in mouse NIH 3T3 clone C7 cells; P00533 (Epidermal growth factor receptor)
In words: Cellular HER-2 kinase assay. It counts as cell-based. As to conditions: read-out: Her2 Kinase IC50.

Experiment [1] has as its target T2, EGFR (Homo sapiens, UniProt P00533).
T2 construct: A431 cell lysate (SUGEN, Inc.); host or cells: A431
In words: cell EGF assay. It counts as cell-based. On the procedure:
Several of the assays described herein are performed in an ELISA (Enzyme-Linked Immunosorbent Sandwich Assay) format (Voller, et al., 1980, “Enzyme-Linked Immunosorbent Assay,” Manual of Clinical Immunology, 2d ed., Rose and Friedman, Am. Soc. Of Microbiology, Washington, D.C., pp. 359-371). The general procedure is as follows: a compound is introduced to cells expressing the test kinase, either naturally or recombinantly, for a selected period of time after which, if the test kinase is a receptor, a ligand known to activate the receptor is added. The cells are lysed and the lysate is transferred to the wells of an ELISA plate previously coated with a specific antibody recognizing the substrate of the enzymatic phosphorylation reaction. Non-substrate components of the cell lysate are washed away and the amount of phosphorylation on the substrate is detected with an antibody specifically recognizing phosphotyrosine compared with control cells that were not contacted with a test compound.

The target in experiment [2] is T2, EGFR. Kind of experiment: EGFR bioassay (bio EGF). The experiment is classed as biochemical.
In a further experiment the target is T3, PDGFR-β (Homo sapiens, UniProt P09619).
T3 construct: host or cells: NIH 3T3
Kind of experiment: PDGFR bioassay (bio PDGF). It counts as biochemical.

A further experiment concerns the target T4, GST-Flk1 (Mus musculus, UniProt P35918).
T4 construct: GST-Flk1cd purified from sf9 recombinant baculovirus transformation; host or cells: Sf9 (baculovirus)
In words: GST-FLK-1 bioassay (bio flkGST). The experiment is classed as biochemical.

Broadly, the IC50 is the point on the concentration scale where inhibition reaches its midpoint.

T3 sequence (P09619 33-1106): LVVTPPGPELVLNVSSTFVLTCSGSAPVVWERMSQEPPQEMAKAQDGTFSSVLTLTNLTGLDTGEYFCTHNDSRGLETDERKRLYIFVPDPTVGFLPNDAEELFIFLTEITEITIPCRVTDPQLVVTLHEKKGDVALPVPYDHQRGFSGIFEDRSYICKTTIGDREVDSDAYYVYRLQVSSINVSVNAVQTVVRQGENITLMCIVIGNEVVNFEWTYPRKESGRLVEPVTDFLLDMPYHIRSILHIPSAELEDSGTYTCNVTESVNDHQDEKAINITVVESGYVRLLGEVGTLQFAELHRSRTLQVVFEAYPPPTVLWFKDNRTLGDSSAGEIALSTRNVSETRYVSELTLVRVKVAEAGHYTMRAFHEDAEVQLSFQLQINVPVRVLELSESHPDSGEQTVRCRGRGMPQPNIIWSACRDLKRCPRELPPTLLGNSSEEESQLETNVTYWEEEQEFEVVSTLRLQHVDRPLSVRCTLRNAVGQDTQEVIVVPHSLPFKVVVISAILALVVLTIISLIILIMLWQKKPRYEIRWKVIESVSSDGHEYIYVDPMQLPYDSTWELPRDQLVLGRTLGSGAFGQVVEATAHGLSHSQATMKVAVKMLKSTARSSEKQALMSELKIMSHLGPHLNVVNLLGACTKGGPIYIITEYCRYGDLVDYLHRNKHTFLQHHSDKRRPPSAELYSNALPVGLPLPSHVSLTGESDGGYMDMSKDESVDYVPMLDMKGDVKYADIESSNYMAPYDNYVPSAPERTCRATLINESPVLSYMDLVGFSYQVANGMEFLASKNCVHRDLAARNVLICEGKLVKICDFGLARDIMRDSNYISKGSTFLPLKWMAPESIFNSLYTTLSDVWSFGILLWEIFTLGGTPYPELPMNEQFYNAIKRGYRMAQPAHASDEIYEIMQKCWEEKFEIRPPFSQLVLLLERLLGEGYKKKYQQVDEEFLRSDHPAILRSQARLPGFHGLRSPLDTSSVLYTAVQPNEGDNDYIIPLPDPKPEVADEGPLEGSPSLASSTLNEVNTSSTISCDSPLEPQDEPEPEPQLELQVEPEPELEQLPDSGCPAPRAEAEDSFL
T4 sequence (P35918 784-1345 limits assumed): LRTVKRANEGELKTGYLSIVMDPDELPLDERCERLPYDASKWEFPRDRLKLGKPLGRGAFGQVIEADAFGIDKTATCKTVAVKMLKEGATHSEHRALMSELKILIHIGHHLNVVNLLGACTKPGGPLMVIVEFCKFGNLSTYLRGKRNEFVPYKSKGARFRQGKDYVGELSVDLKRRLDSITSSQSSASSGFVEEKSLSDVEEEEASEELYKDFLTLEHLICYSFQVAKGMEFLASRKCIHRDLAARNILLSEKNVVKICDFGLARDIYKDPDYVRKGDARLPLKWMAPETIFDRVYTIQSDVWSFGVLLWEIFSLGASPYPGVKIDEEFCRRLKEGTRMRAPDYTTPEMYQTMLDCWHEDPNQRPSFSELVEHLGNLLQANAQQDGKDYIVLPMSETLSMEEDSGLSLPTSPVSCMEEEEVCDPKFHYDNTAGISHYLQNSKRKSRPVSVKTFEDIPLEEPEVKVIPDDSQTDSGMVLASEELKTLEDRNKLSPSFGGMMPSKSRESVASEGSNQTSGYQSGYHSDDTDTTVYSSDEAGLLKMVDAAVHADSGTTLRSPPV
T2 sequence (P00533 25-1210): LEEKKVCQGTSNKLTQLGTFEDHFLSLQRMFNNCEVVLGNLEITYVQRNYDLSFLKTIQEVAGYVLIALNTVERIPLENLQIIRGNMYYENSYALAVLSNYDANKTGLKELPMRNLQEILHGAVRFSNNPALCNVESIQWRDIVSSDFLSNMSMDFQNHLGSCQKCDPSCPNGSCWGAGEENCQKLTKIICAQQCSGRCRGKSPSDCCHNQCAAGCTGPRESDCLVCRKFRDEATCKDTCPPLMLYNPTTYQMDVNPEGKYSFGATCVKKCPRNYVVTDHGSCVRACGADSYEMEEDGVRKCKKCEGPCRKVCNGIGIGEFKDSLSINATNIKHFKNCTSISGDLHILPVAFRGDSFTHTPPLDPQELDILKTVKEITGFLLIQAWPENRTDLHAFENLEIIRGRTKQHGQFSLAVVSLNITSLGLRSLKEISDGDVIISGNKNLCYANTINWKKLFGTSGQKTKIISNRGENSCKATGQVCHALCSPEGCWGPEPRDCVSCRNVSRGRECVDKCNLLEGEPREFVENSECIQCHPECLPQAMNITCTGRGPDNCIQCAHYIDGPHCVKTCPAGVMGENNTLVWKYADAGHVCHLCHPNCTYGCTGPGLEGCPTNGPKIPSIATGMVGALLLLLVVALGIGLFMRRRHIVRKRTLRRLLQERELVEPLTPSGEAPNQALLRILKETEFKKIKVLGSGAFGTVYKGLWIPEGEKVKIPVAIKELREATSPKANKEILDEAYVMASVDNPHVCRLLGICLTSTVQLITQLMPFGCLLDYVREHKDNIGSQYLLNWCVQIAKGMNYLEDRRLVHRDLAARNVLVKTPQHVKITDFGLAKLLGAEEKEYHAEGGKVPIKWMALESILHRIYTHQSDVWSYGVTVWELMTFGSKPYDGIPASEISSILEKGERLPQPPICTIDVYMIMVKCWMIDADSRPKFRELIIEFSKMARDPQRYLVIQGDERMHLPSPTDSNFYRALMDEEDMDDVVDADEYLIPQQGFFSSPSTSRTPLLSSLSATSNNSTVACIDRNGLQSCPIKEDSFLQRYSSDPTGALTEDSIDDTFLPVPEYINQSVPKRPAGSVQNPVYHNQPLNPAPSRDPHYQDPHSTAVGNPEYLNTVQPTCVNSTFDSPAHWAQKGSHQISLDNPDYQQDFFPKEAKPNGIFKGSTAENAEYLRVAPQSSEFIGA
T1 sequence (P04626 720-987 limits assumed): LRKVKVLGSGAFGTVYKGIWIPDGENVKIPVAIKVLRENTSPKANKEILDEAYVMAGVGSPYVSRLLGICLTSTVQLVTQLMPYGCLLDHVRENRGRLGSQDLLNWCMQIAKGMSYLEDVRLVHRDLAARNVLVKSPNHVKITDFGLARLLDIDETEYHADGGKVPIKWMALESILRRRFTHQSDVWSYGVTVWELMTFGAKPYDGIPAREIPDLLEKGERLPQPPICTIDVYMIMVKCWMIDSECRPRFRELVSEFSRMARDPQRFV
Description for GST-Flk1: This assay analyzes the tyrosine kinase activity of GST-Flk1 on poly(glu,tyr) peptides.
Preparation of poly(glu,tyr)(pEY) coated assay plates: Coat 2 ug/well of poly(glu,tyr)(pEY) in 100 ul PBS, hold at room temperature for 2 hours or at 4° C. overnight. Cover plates well to prevent evaporation.
When all reagents have dissolved, adjust the pH to 7.2 with HCl. Bring total volume to 1 L with dH2O.
PBST Buffer: to 1 L of PBS Buffer, add 1.0 ml Tween-20.
Adjust pH to 7.2 with HCl. Add 10 g BSA, stir to dissolve. Bring total volume to 1 L with dH2O. Filter to remove particulate matter.
Adjust total volume to 1 L with PBS buffer, filter to remove particulate matter.
GST-Flk1cd purified from sf9 recombinant baculovirus transformation (SUGEN, Inc.).
Add 10 N NaOH until EDTA dissolves. Adjust pH to 8.0. Adjust total volume to 100 ml with dH2O.
Anti-phosphotyrosine monoclonal antibody conjugated to horseradish peroxidase (PY99 HRP, Santa Cruz Biotech).
2,2′-Azinobis(3-ethylbenzthiazoline-6-sulfonic acid (ABTS, Moss, Cat. No. ABST).
Coat Corning 96-well ELISA plates with 2 μg of polyEY peptide in sterile PBS as described in step 3 of Materials and Reagents.
Remove unbound liquid from wells by inverting plate. Wash once with TBST. Pat the plate on a paper towel to remove excess liquid.
Add 100 μl of 1% BSA in PBS to each well. Incubate, with shaking, for 1 hr. at room temperature.
Soak wells with 50 mM HEPES (pH7.5) (150 μl/well).
Dilute test compound with dH2O/4% DMSO to 4 times the desired final assay concentration in 96-well polypropylene plates.
Add 25 μl diluted test compound to ELISA plate. In control wells, place 25 μl of dH2O/4% DMSO.
Add 25 μl 0.5M EDTA to negative control wells.
Dilute GST-Flk1 to 0.005 μg (5 ng)/well with KDB.
Add 50 μl of diluted enzyme to each well.
Incubate, with shaking, for 15 minutes at room temperature.
Wash 3×with TBST and pat plate on paper towel to remove excess liquid.
Incubate, with shaking, for 90 min. at room temperature.
Add 100 μl of room temperature ABTS solution to each well.
Stop reaction by adding 20 μl of 10% SDS to each well.
Description for HER-2 kinase: Cellular HER-2 Kinase Assay
This assay is used to measure HER-2 kinase activity in whole cells in an ELISA format.
Fetal Bovine Serum (FBS, GIBCO Catalog #16000-044), heat inactivated in a water bath for 30 min. at 56° C.
Corning 96-well ELISA Plates.
(§1) NUNC 96-well V bottom polypropylene plates.
SUMO 1: monoclonal anti-EGFR antibody (SUGEN, Inc.).
Blocking Buffer: 5% Carnation Instant Milk® in PBS.
Suspend powder in 100 uL of 10 mM HCl. Add 100 uL 10 mM NaOH. Add 800 uL PBS and transfer to an Eppendorf tube, store at −20° C. until ready to use.
Na3VO4. […] Adjust pH to 10. Boil in microwave for one minute (solution becomes clear). Cool to room temperature. Adjust pH to 10. Repeat heating/cooling cycle until pH remains at 10.
Rabbit polyclonal antiserum specific for phosphotyrosine (anti-Ptyr antibody, SUGEN, Inc.).
Affinity purified antiserum, goat anti-rabbit IgG antibody, peroxidase conjugate (Biosource Cat #ALI0404).
30% Hydrogen peroxide solution.
Coat Corning 96 well ELISA plates with SUMO1 at 1.0 ug per well in PBS, 100 ul final volume/well. Store overnight at 4° C.
On day of use, remove coating buffer and wash plate 3 times with dH2O and once with TBST buffer. All washes in this assay should be done in this manner, unless otherwise specified.
Add 100 ul of Blocking Buffer to each well. Incubate plate, with shaking, for 30 min. at room temperature. Just prior to use, wash plate.
Use EGFr/HER-2 chimera/3T3-C7 cell line for this assay.
Choose dishes having 80-90% confluence. Collect cells by trypsinization and centrifuge at 1000 rpm at room temperature for 5 min.
Resuspend cells in starve medium and count with trypan blue. Viability above 90% is required. Seed cells in starve medium at a density of 2,500 cells per well, 90 ul per well, in a 96 well microtiter plate. Incubate seeded cells overnight at 37° under 5% CO2.
Start the assay two days after seeding.
Test compounds are dissolved in 4% DMSO. Samples are then further diluted directly on plates with starve-DMEM. Typically, this dilution will be 1:10 or greater.
Incubate under 5% CO2 at 37° C. for 2 hours.
Prepare fresh HNTG* sufficient for 100 ul per well; place on ice.
After 2 hour incubation with test compound, add prepared EGF ligand to cells, 50 ul per well, for a final concentration of 50 nM. Positive control wells receive the same amount of EGF. […] Incubate at 37° C. for 10 min.
Remove test compound, EGF, and DMEM. Wash cells once with PBS.
Transfer HNTG* to cells, 100 ul per well. Place on ice for 5 minutes. Meanwhile, remove blocking buffer from ELISA plate and wash.
Scrape cells from plate with a micropipettor and homogenize cell material by repeatedly aspirating and dispensing the HNTG* lysis buffer. Transfer lysate to a coated, blocked, washed ELISA plate. Or, use a Costar transfer cartridge to transfer lysate to the plate.
Incubate, with shaking, at room temperature for 1 hr.
Remove lysate, wash. Transfer freshly diluted anti-Ptyr antibody (1:3000 in TBST) to ELISA plate, 100 ul per well.
Incubate, with shaking, at room temperature, for 30 min.
Remove anti-Ptyr antibody, wash. Transfer freshly diluted BIOSOURCE antibody to ELISA plate (1:8000 in TBST, 100 ul per well).
Incubate, with shaking, at room temperature for 30 min.
Remove BIOSOURCE antibody, wash. Transfer freshly prepared ABTS/H2O2 solution to ELISA plate, 100 ul per well.
Stop reaction with the addition of 100 ul of 0.2M HCl per well.
Description for PDGFR-β: Corning 96-well Elisa plates
28D4C10 monoclonal anti-PDGFR antibody (SUGEN, Inc.).
Blocking Buffer (same as for EGFR bioassay).
PDGFR-β expressing NIH 3T3 cell lysate (SUGEN, Inc.).
Kinase buffer phosphorylation mix: for 10 ml, mix 250 μl 1M TRIS, 200 μl 5M NaCl, 100 μl 1M MnCl2 and 50 μl 100 mM Triton X-100 in enough dH2O to make 10 ml.
as §1
Rabbit polyclonal anti-phosphotyrosine serum (SUGEN, Inc.).
Goat anti-rabbit IgG peroxidase conjugate (Biosource Cat. No. ALI0404).
Hydrogen peroxide, 30% solution.
Coat Corning 96 well ELISA plates with 0.5 μg 28D4C10 in 100 μl PBS per well, store overnight at 4° C.
Remove unbound 28D4C10 from wells by inverting plate to remove liquid. Wash 1×with dH2O. Pat the plate on a paper towel to remove excess liquid.
Add 150 μl of Blocking Buffer to each well. Incubate for 30 min. at room temperature with shaking.
Wash plate 3×with deionized water, then once with TBST. Pat plate on a paper towel to remove excess liquid and bubbles.
Dilute lysate in HNTG (10 μg lysate/100 μl HNTG).
Add 100 μl of diluted lysate to each well. Shake at room temperature for 60 min.
Wash plates as described in Step 4.
Add 80 μl working kinase buffer mix to ELISA plate containing captured PDGFR.
Add 10 μl diluted test compound to ELISA plate. To control wells, add 10 μl TBS+10% DMSO. Incubate with shaking for 30 minutes at room temperature.
Add 10 μl ATP directly to all wells except negative control well (final well volume should be approximately 100 μl with 20 μM ATP in each well.) Incubate 30 minutes with shaking.
Stop reaction by adding 10 μl of EDTA solution to each well.
Wash 4×with deionized water, twice with TBST.
Add 100 μl anti-phosphotyrosine (1:3000 dilution in TBST) per well. Incubate with shaking for 30-45 min. at room temperature.
Incubate with shaking for 30 min. at room temperature.
Add 100 μl of ABTS/H2O2 solution to each well.
Incubate 10 to 30 minutes with shaking. Remove any bubbles.
If necessary stop reaction with the addition of 100 μl 0.2 M HCl per well.

For the molecule `CCN(CC)CCNC(=O)c1c(C(C)C)[nH]c(/C=C2\C(=O)Nc3ccc(Br)cc32)c1-c1ccccc1` [Example 39, 5-(5-Bromo-2-oxo-1,2-dihydroindol-3-ylidenemethyl)-2-isopropyl-4-phenyl-1H-pyrrole-3-carboxylic acid (2-diethylaminoethyl)amide], the IC50 was 3.53 µM at HER-2 kinase; 14.5 µM on EGFR [1]; 3.67 µM against EGFR [2]; 4.69 µM at PDGFR-β; 3.38 µM on GST-Flk1.

With `CCN(CC)CCCNC(=O)c1c(C(C)C)[nH]c(/C=C2\C(=O)Nc3ccc(Br)cc32)c1C(C)C` [Example 72, 5-(5-Bromo-2-oxo-1,2-dihydroindol-3-ylidenemethyl)-2,4-diisopropyl-1H-pyrrole-3-carboxylic acid (3-diethylaminopropyl)amide], the IC50 at HER-2 kinase is 9.65 µM; on EGFR [1], 39.9 µM; at EGFR [2], > 100 µM; at PDGFR-β, 10.5 µM; against GST-Flk1 it was 6.06 µM.

As for `Cc1[nH]c(/C=C2\C(=O)Nc3cc(-c4cccnc4)ccc32)c(C)c1C(=O)NCCCN(C)C` [Example 65, 2,4-Dimethyl-5-(2-oxo-6-pyridin-3-yl-1,2-dihydroindol-3-ylidenemethyl)-1H-pyrrole-3-carboxylic acid (3-dimethylamino-propyl)amide], the half-maximal inhibitory concentration (IC50) on HER-2 kinase is 16 µM; against EGFR [1], 74.4 µM; at EGFR [2], > 100 µM; against PDGFR-β it was < 0.05 µM; on GST-Flk1, 0.37 µM.

Turning to `CN(C)CCNC(=O)c1[nH]c(/C=C2\C(=O)Nc3ccc(Br)cc32)c2c1CCCC2` [Example 89, 3-(5-Bromo-2-oxo-1,2-dihydro-indol-3-ylidenemethyl)-4,5,6,7-tetrahydro-2H-isoindole-1-carboxylic acid (2-dimethylamino-ethyl)-amide], the IC50 worked out at 16 µM at HER-2 kinase; 9.67 µM on EGFR [1]; 8.53 µM against EGFR [2]; 47.6 µM on PDGFR-β; 7.84 µM against GST-Flk1.

Take `CCN(CC)CCNC(=O)c1ccc(/C=C2\C(=O)Nc3ccc(Br)cc32)[nH]1` [Example 8, 5-(5-Bromo-2-oxo-1,2-dihydroindol-3-ylidenemethyl)-1H-pyrrole-2-carboxylic acid (2-diethylaminoethyl)amide]: the IC50 at HER-2 kinase is 5.5 µM; against EGFR [1], 20.1 µM; on EGFR [2], 51.3 µM; at PDGFR-β, > 100 µM; against GST-Flk1 it was 12.1 µM.

Consider `CCN(CC)CCN(C)C(=O)c1ccc(/C=C2\C(=O)Nc3ccc(Br)cc32)[nH]1` [Example 10, 5-(5-Bromo-2-oxo-1,2-dihydroindol-3-ylidenemethyl)-1H-pyrrole-2-carboxylic acid (2-diethylaminoethyl)methylamide], for which the IC50 on HER-2 kinase was 8.06 µM; against EGFR [1], 15.9 µM; on EGFR [2], 94 µM; against PDGFR-β, > 100 µM; against GST-Flk1 it was 5.72 µM.

As for `Cc1[nH]c(/C=C2\C(=O)Nc3ccc(-c4ccccc4)cc32)c(C)c1C(=O)NCCN1CCCC1` [Example 57, 2,4-Dimethyl-5-(2-oxo-5-phenyl-1,2-dihydroindol-3-ylidenemethyl)-1H-pyrrole-3-carboxylic acid (2-pyrrolidin-1-yl-ethyl)amide], the concentration for half-maximal inhibition (IC50) was 6.94 µM at HER-2 kinase; 9.97 µM against EGFR [1]; > 100 µM at EGFR [2]; 7.98 µM on PDGFR-β; 0.06 µM against GST-Flk1.

Regarding `Cc1[nH]c(/C=C2\C(=O)Nc3cc(-c4ccccc4)ccc32)c(C)c1C(=O)NCCN1CCCC1` [Example 60, 2,4-Dimethyl-5-(2-oxo-6-phenyl-1,2-dihydroindol-3-ylidenemethyl)-1H-pyrrole-3-carboxylic acid (2-pyrrolidin-1-yl-ethyl)amide], the half-inhibitory concentration (IC50) at HER-2 kinase is > 100 µM; on EGFR [1] it was > 100 µM; at EGFR [2] it was > 100 µM; on PDGFR-β, < 0.78 µM.

With `Cc1[nH]c(/C=C2\C(=O)Nc3ccc(Br)cc32)c(C)c1C(=O)NCCCn1ccnc1` [Example 53, 5-(5-Bromo-2-oxo-1,2-dihydroindol-3-ylidenemethyl)-2,4-dimethyl-1H-pyrrole-3-carboxylic acid (3-imidazol-1-ylpropyl)amide], the half-maximal inhibitory concentration (IC50) on HER-2 kinase is > 100 µM; on EGFR [1], > 100 µM; at EGFR [2], > 100 µM; against PDGFR-β, < 0.78 µM.

Consider `CCOC(=O)c1c(C)[nH]c(/C=C2\C(=O)Nc3ccc(Br)cc32)c1-c1ccccc1` [Example 46, 5-(5-Bromo-2-oxo-1,2-dihydroindol-3-ylidenemethyl)-2-methyl-4-phenyl-1H-pyrrole-3-carboxylic acid ethyl ester], for which the IC50 at HER-2 kinase is > 100 µM; against EGFR [1], > 100 µM; against EGFR [2] it was > 100 µM; against PDGFR-β, 6.18 µM; on GST-Flk1, 30.6 µM.

Take `Cc1[nH]c(/C=C2\C(=O)Nc3cc(-c4ccccc4)ccc32)c(C)c1C(=O)NCCCn1ccnc1` [Example 61, 2,4-Dimethyl-5-(2-oxo-6-phenyl-1,2-dihydroindol-3-ylidenemethyl)-1H-pyrrole-3-carboxylic acid (3-imidazol-1-ylpropyl)amide]: the IC50 was > 100 µM at HER-2 kinase, > 100 µM against EGFR [1], > 100 µM on EGFR [2] and < 0.78 µM against PDGFR-β.

For the molecule `COc1ccccc1-c1ccc2c(c1)NC(=O)/C2=C\c1[nH]c(C)c(C(=O)NCCN2CCCC2)c1-c1ccccc1` [Example 43, 5-[6-(2-Methoxy-phenyl)-2-oxo-1,2-dihydroindol-3-ylidenemethyl]-2-methyl-4-phenyl-1H-pyrrole-3-carboxylic acid (2-pyrrolidin-1-yl-ethyl)amide], the IC50 on HER-2 kinase stood at 53.4 µM; against EGFR [1], 37.3 µM; against PDGFR-β, 8.38 µM; against GST-Flk1, 1.12 µM.

With `CCN(CC)CCCNC(=O)c1c(C)[nH]c(/C=C2\C(=O)Nc3cccc(C(=O)Nc4ccc(OC)c(Cl)c4)c32)c1C` [Example 69, 3-[4-(3-Diethylamino-propylcarbamoyl)-3,5-dimethyl-1H-pyrrol-2-ylmethylene]-2-oxo-2,3-dihydro-1H-indole-4-carboxylic acid (3-chloro-4-methoxy-phenyl)amide], the IC50 on EGFR [1] stood at 97.5 µM; against PDGFR-β it was 56.5 µM; against GST-Flk1, 0.3 µM.

With `Cc1cc(C(=O)O)[nH]c1/C=C1\C(=O)N(C)c2ccccc21` [Example 2, 4-Methyl-5-(1-methyl-2-oxo-1,2-dihydroindol-3-ylidenemethyl)-1H-pyrrole-2-carboxylic acid], the IC50 against EGFR [1], against EGFR [2], against PDGFR-β and on GST-Flk1 was > 100 µM in each case.

Regarding `CCN(CC)CCCNC(=O)c1c(C)[nH]c(/C=C2\C(=O)Nc3cc(-c4ccccc4)ccc32)c1C` [Example 68, 2,4-Dimethyl-5-(2-oxo-6-phenyl-1,2-dihydroindol-3-ylidenemethyl)-1H-pyrrole-3-carboxylic acid (3-diethylaminopropyl)amide], the IC50 is 34.1 µM at HER-2 kinase, 23.5 µM on EGFR [1], 0.03 µM at PDGFR-β and 1.16 µM at GST-Flk1.
